Test results as given in PubChem BioAssay AID330 (DTP/NCI, 2004).
Several values for one entry are separate records, joined by “and”; a condition that tells them apart may be missing. Equal values may be shown once. Inconclusive results and toxic doses are left out. The calls were made as follows: active = survival T/C of 150% or more; inactive = T/C below 125% in these data.

Tested on: P388 leukemia ip, CD2F1 mice, survival T/C
Test: NCI In Vivo Anticancer Drug Screen. Data for tumor model P388 Leukemia (intraperitoneal) in CD2F1 (CDF1) mice
Conditions: endpoint: median survival time, higher = longer survival
In short: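 Mice carrying the transplanted tumor received test compound or vehicle. Survival was recorded in each group, and the value is the treated-group measurement divided by that of the vehicle-treated control group.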

[1] = dose: 50.0 mg/kg/injection, schedule: Q01DX009 (ip), vehicle: Klucel (hydroxypropylcellulose) (HPC)
[2] = dose: 100.0 mg/kg/injection, schedule: Q01DX009 (ip), vehicle: Klucel (hydroxypropylcellulose) (HPC)
[3] = dose: 50.0 mg/kg/injection, schedule: Q01DX005 (ip), vehicle: saline with Tween-80
[4] = dose: 100.0 mg/kg/injection, schedule: Q01DX005 (ip), vehicle: saline with Tween-80
[5] = dose: 60.0 mg/kg/injection, schedule: Q01DX005 (ip), vehicle: saline with Tween-80
[6] = dose: 120.0 mg/kg/injection, schedule: Q01DX005 (ip), vehicle: saline with Tween-80
[7] = dose: 100.0 mg/kg/injection, schedule: Q04DX003 (ip), vehicle: Klucel (hydroxypropylcellulose) (HPC)
[8] = dose: 200.0 mg/kg/injection, schedule: Q04DX003 (ip), vehicle: Klucel (hydroxypropylcellulose) (HPC)
[9] = dose: 50.0 mg/kg/injection, schedule: Q01DX005 (ip), vehicle: Klucel (hydroxypropylcellulose) (HPC)
[10] = dose: 100.0 mg/kg/injection, schedule: Q01DX005 (ip), vehicle: Klucel (hydroxypropylcellulose) (HPC)

Measured: T/C

CCOc1ccc(NC(=O)c2c(N)n(C)c(=O)n(C)c2=O)cc1
inactive: [1] 88 % of control | [2] 93 % of control

Cc1c(C=O)cc(-c2ccccc2)n1C
inactive: [3] 89 % of control | [4] 89 % of control | dose: 200.0 mg/kg/injection, schedule: Q01DX005 (ip), vehicle: saline with Tween-80 91 % of control

Cc1nccn1CC(=O)c1ccccc1
inactive: [5] 104 % of control | [6] 104 % of control

NC(C[O-])C(=O)[O-].NCC(=O)[O-].[Mn+3] (centres undefined)
inactive: dose: 100.0 mg/kg/injection, schedule: Q04DX002 (ip), vehicle: saline with Tween-80 114 % of control | dose: 200.0 mg/kg/injection, schedule: Q04DX002 (ip), vehicle: saline with Tween-80 113 % of control

O=C(Nc1ccc(N=C=S)cc1Cl)c1cc(Br)cc(Br)c1O
inactive: dose: 25.0 mg/kg/injection, schedule: Q01DX001 (ip), vehicle: Klucel (hydroxypropylcellulose) (HPC) 106 % of control | dose: 50.0 mg/kg/injection, schedule: Q01DX001 (ip), vehicle: Klucel (hydroxypropylcellulose) (HPC) 100 % of control | dose: 100.0 mg/kg/injection, schedule: Q01DX001 (ip), vehicle: Klucel (hydroxypropylcellulose) (HPC) 92 % of control and 95 % of control

CC1=CC(=O)N2CCN=C2S1
inactive: dose: 25.0 mg/kg/injection, schedule: Q04DX003 (ip), vehicle: Klucel (hydroxypropylcellulose) (HPC) 101 % of control | dose: 50.0 mg/kg/injection, schedule: Q04DX003 (ip), vehicle: Klucel (hydroxypropylcellulose) (HPC) 101 % of control | [7] 111 % of control and 98 % of control | [8] 111 % of control

CC1=NN(C(=O)c2ccc(Cl)cc2)C(=O)C1N=Nc1ccc(S(=O)(=O)Nc2ccccn2)cc1 (centres undefined)
inactive: [3] 102 % of control | [4] 94 % of control

CC12CCC(O)CC1CCC1C2CCC2(C)C(c3ccc(=O)oc3)CC3OC312 (centres undefined)
inactive: dose: 0.31 mg/kg/injection, schedule: Q01DX009 (ip), vehicle: saline with Tween-80 108 % of control | dose: 0.62 mg/kg/injection, schedule: Q01DX009 (ip), vehicle: saline with Tween-80 100 % of control | dose: 1.25 mg/kg/injection, schedule: Q01DX009 (ip), vehicle: saline with Tween-80 104 % of control | dose: 2.5 mg/kg/injection, schedule: Q01DX009 (ip), vehicle: saline with Tween-80 115 % of control | dose: 5.0 mg/kg/injection, schedule: Q01DX009 (ip), vehicle: saline with Tween-80 100 % of control and 87 % of control | dose: 10.0 mg/kg/injection, schedule: Q01DX009 (ip), vehicle: saline with Tween-80 87 % of control | dose: 20.0 mg/kg/injection, schedule: Q01DX009 (ip), vehicle: saline with Tween-80 88 % of control

O/N=C(/Cc1nc2cc(Cl)c(Cl)cc2nc1C/C(=N/O)c1cccc2ccccc12)c1cccc2ccccc12
inactive: [5] 91 % of control | [6] 99 % of control | dose: 240.0 mg/kg/injection, schedule: Q01DX005 (ip), vehicle: saline with Tween-80 94 % of control

CC(C)C1OC2(CCCC2)OCC1(C)C (centres undefined)
inactive: [7] 103 % of control | [8] 103 % of control | dose: 400.0 mg/kg/injection, schedule: Q04DX003 (ip), vehicle: Klucel (hydroxypropylcellulose) (HPC) 100 % of control

COc1ccc(CSC(=S)Nc2ccc(Cl)c(C)c2)cc1
inactive: dose: 50.0 mg/kg/injection, schedule: Q01DX009 (ip), vehicle: suspension in saline 111 % of control | dose: 100.0 mg/kg/injection, schedule: Q01DX009 (ip), vehicle: suspension in saline 109 % of control | dose: 200.0 mg/kg/injection, schedule: Q01DX009 (ip), vehicle: suspension in saline 106 % of control

CCCCCCCCCN1CCS(=O)(=O)CC1
inactive: [1] 94 % of control | [2] 98 % of control | dose: 200.0 mg/kg/injection, schedule: Q01DX009 (ip), vehicle: Klucel (hydroxypropylcellulose) (HPC) 103 % of control

CCOC(=O)C1=C(C)/C(=C/c2[n-]c(Cl)c(C)c2C(=O)OCC)N=C1C.CCOC(=O)C1=C(C)/C(=C/c2[n-]c(Cl)c(C)c2C(=O)OCC)N=C1C.[Ni+2]
inactive: [9] 102 % of control | [10] 114 % of control | dose: 200.0 mg/kg/injection, schedule: Q01DX005 (ip), vehicle: Klucel (hydroxypropylcellulose) (HPC) 102 % of control

CC1CC(=O)c2cc3oc(=O)n(C)c3cc21 (centres undefined)
inactive: [9] 105 % of control | [10] 94 % of control

Cc1cccc2nccn12
inactive: dose: 6.25 mg/kg/injection, schedule: Q01DX009 (ip), vehicle: saline with Tween-80 97 % of control | dose: 12.5 mg/kg/injection, schedule: Q01DX009 (ip), vehicle: saline with Tween-80 95 % of control | dose: 25.0 mg/kg/injection, schedule: Q01DX009 (ip), vehicle: saline with Tween-80 97 % of control | dose: 50.0 mg/kg/injection, schedule: Q01DX009 (ip), vehicle: saline with Tween-80 100 % of control

CCNc1nc(Cl)nc(NC(C)C)n1
inactive: dose: 50.0 mg/kg/injection, schedule: Q04DX003 (ip), vehicle: saline with Tween-80 91 % of control | dose: 100.0 mg/kg/injection, schedule: Q04DX003 (ip), vehicle: saline with Tween-80 87 % of control | dose: 200.0 mg/kg/injection, schedule: Q04DX003 (ip), vehicle: saline with Tween-80 91 % of control
